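All cell lines were grown in 96-well plates and treated with compound for 48 hours. Here, GI50 denotes the concentration required for 50% inhibition of growth. At the TGI there is no net growth.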
Columns and labels:
Assay in all cases: inhibition of tumour cell growth, NCI panel, 48 h
[1] = tested on: A498 renal
[2] = tested on: IGROV1 ovarian
[3] = tested on: KM12 colon
[4] = tested on: MALME-3M melanoma
[5] = tested on: RXF 393 renal
[6] = tested on: SK-OV-3 ovarian
[7] = tested on: SNB-19 CNS
[8] = tested on: TK-10 renal
[9] = tested on: NCI-H226 lung
[10] = tested on: BT-549 breast

Row | Structure (SMILES) | TGI [1] | TGI [2] | TGI [3] | TGI [4] | TGI [5] | TGI [6] | TGI [7] | TGI [8] | TGI [9] | GI50 [10] | TGI [10] | GI50 [2] | GI50 [3] | GI50 [4] | GI50 [9] | GI50 [5] | GI50 [6] | GI50 [7] | GI50 [8] | GI50 [1]
1 | CCOC(=O)C=C1CCN(C(=O)c2ccccc2)CC1 | > 100 µM | > 100 µM | > 100 µM | > 100 µM | > 100 µM | > 100 µM | > 100 µM | > 100 µM | – | – | – | – | – | – | – | – | – | – | – | –
2 | CS(=O)(=O)CC1=Nc2nnc(CCCCCCCc3nnc4n3C(=O)C(CS(C)(=O)=O)=N4)n2C1=O | > 100 µM | > 100 µM | > 100 µM | > 100 µM | > 100 µM | > 100 µM | > 100 µM | > 100 µM | > 100 µM | – | – | – | – | – | – | – | – | – | – | –
3 | CC12CCC(=O)C(O1)C1C(=O)c3cc4ccccc4cc3C(=O)C12 (stereo unspecified) | – | > 100 µM | 29.5 µM | 29.5 µM | 14.6 µM | > 100 µM | > 100 µM | 33.6 µM | 41.9 µM | 23.7 µM | 58.6 µM | 23.9 µM | 12.5 µM | 12.9 µM | 14.4 µM | 2.5 µM | 46.6 µM | 38.1 µM | 16.6 µM | –
4 | O=C(NCCCCCCNC(=O)c1cccc2ccccc12)c1cccc2ccccc12 | 65.6 µM | > 100 µM | > 100 µM | > 100 µM | 23.8 µM | 56.9 µM | – | 36.9 µM | 53 µM | – | – | – | – | – | – | – | – | – | – | –
5 | COc1cccc(OC(=O)c2ccccc2Nc2ccnc(C(F)(F)F)c2)c1 | – | > 100 µM | – | – | 59.6 µM | – | > 100 µM | 37 µM | 77.3 µM | 8.11 µM | 55 µM | 23.6 µM | – | – | 8.09 µM | 20.7 µM | – | 3.52 µM | 11.2 µM | –
6 | COc1cc2cc(Oc3ccc(NC(=O)Nc4ccc(Cl)c(C(F)(F)F)c4)cc3)c(C)nc2cc1OCCN1CCCCC1 | 2.58 µM | 2.94 µM | 3.09 µM | 3.13 µM | – | 3.93 µM | 3.19 µM | 3.38 µM | – | 1.79 µM | 3.45 µM | 1.48 µM | 1.64 µM | 1.62 µM | – | – | 2.28 µM | 1.68 µM | 1.79 µM | 1.24 µM
7 | C=C1C(=O)OC2CC3(C)C=CC(=O)C(=C)C3CC12 (stereo unspecified) | 19.5 µM | 5.04 µM | 5.57 µM | 4.02 µM | 4.46 µM | 42.1 µM | 21.3 µM | 4.79 µM | 25.8 µM | – | – | – | – | – | – | – | – | – | – | –
8 | O=C(CCn1[nH]c(=O)c(Cl)c(Cl)c1=O)NOCCCc1ccccc1 | > 100 µM | > 100 µM | > 100 µM | > 100 µM | – | – | > 100 µM | > 100 µM | > 100 µM | – | – | – | – | – | – | – | – | – | – | –
9 | COc1cc2nc(Cl)nc(Nc3cccc(C(=O)/C=C/c4ccccc4)c3)c2cc1OC | > 66.5 µM | 42.9 µM | > 100 µM | – | 5.46 µM | 51.7 µM | > 31.8 µM | 20 µM | > 100 µM | 2.36 µM | 7.83 µM | 4.45 µM | 2.45 µM | – | 5.81 µM | 2.02 µM | 7.96 µM | 2.96 µM | 4.19 µM | > 25 µM
10 | CCN1C(=O)N(CC)C2C1NN=c1s/c(=C3\C(=O)N(C(C)C)c4ccccc43)c(=O)n12 (stereo unspecified) | 0.91 µM | > 100 µM | > 100 µM | > 100 µM | – | 12.1 µM | > 100 µM | > 69.4 µM | 23.2 µM | 1.38 µM | 66.4 µM | 0.586 µM | 0.384 µM | 1.18 µM | 0.441 µM | – | 0.403 µM | 0.44 µM | 1.33 µM | 0.239 µM
11 | COC(=O)[C@@H]1CSC(=S)N1C(=O)C[C@H]1CC=CC[C@H]1CC(=O)Sc1ccccc1 | – | 39.7 µM | 34.1 µM | 56.7 µM | 30.4 µM | 50 µM | 34.8 µM | – | 47.2 µM | – | – | – | – | – | – | – | – | – | – | –
12 | O=C(CC1Sc2ccccc2NC1=O)Nc1cc(Cl)ccc1Cl (stereo unspecified) | > 100 µM | > 100 µM | – | > 100 µM | > 100 µM | – | > 100 µM | > 100 µM | > 100 µM | – | – | – | – | – | – | – | – | – | – | –
13 | CC1(Sc2ccccc2)CN(Cc2ccccc2)C1=O (stereo unspecified) | > 100 µM | > 100 µM | > 100 µM | – | > 100 µM | > 100 µM | > 100 µM | > 100 µM | > 100 µM | – | – | – | – | – | – | – | – | – | – | –
14 | COC(=O)CCC(=O)N1Cc2cc(C)ccc2N(C(=O)CCC(=O)OC)Cc2cc(C)ccc21 | – | > 100 µM | > 100 µM | – | > 100 µM | > 100 µM | – | > 100 µM | > 100 µM | – | – | – | – | – | – | – | – | – | – | –
15 | Nc1nc(/C=C\c2ccc([N+](=O)[O-])o2)nc(N2CCN(c3ccccc3)CC2)n1 | 49.4 µM | 32.3 µM | 62.9 µM | – | 41.5 µM | 44.7 µM | 83.8 µM | 32 µM | 52.8 µM | 15.7 µM | > 100 µM | 5.31 µM | 11.5 µM | – | 17.5 µM | 2.94 µM | 17.1 µM | 20 µM | 5.77 µM | 21.5 µM
16 | CC(C)(C(=O)NN)c1ccccc1 | > 100 µM | > 100 µM | > 100 µM | > 100 µM | – | > 100 µM | > 100 µM | > 100 µM | – | – | > 100 µM | – | – | – | – | – | – | – | – | –
17 | Cc1ccc2c(c1)C1(C)OC(CC(N)C1O)O2 (stereo unspecified) | – | > 100 µM | > 100 µM | > 100 µM | > 100 µM | > 100 µM | > 100 µM | > 100 µM | > 100 µM | – | – | – | – | – | – | – | – | – | – | –
18 | Cc1ccc2[nH]c(C(=O)NN3C(=O)CSC34CCCCC4C)c(-c3ccccc3)c2c1 (stereo unspecified) | 34.5 µM | – | 34.7 µM | 35.6 µM | – | 47.1 µM | 42.6 µM | 33.8 µM | 34.2 µM | 20 µM | 36.7 µM | – | 14.9 µM | 17.3 µM | 17.5 µM | – | 21.4 µM | 19.2 µM | 17.5 µM | 17.6 µM

— PubChem BioAssay (NCI)
